Measured values from patent publication US6525000B1, “Method for producing anellated triazoles and new anellated triazoles and their use” (BASF Aktiengesellschaft, priority 1998, dated 2003).

How the values were obtained:
Test in all cases: greenhouse post-emergence herbicidal test
Format in all cases: in vivo
Polygonum persicaria = conditions: POLPE, 100 = complete destruction, 0 = no damage
Excerpt: (§1) The seeds of the test plants were sown separately for each species. For the post-emergence treatment, the test plants were first grown to a plant height of from 3 to 15 cm, depending on plant habit, and only then treated with the active ingredients which had been suspended or emulsified in water. For this purpose, the test plants were either sown directly and grown in the same containers, or they were first grown separately as seedlings and transplanted into the test containers a few days prior to treatment. The rate of application for the post-emergence treatment was 0.0313 or 0.0156 kg of a.s./ha. Dependingon the species, the plants were kept at from 10-25° C. or 20-35° C. The test period extended over 2 to 4 weeks. During this time, the plants were tended, and their response to the individual treatments was evaluated. Evaluation was carried out using a scale from 0 to 100. 100 means no emergence of the plants, or complete destruction of at least the ariel plants, and 0 means no damage or normal course of growth. The plants used in the experiments belonged to the following species: [table]

Solanum nigrum = conditions: SOLNI, 100 = complete destruction, 0 = no damage
Excerpt: as §1

Abutilon theoprasti = conditions: ABUTH, 100 = complete destruction, 0 = no damage
Excerpt: as §1

Veronica spp. = conditions: VERSS, 100 = complete destruction, 0 = no damage
Excerpt: as §1

Galium aparine = conditions: GALAP, 100 = complete destruction, 0 = no damage
Excerpt: as §1

Chenopodium album = conditions: CHEAL, 100 = complete destruction, 0 = no damage
Excerpt: as §1

CON=Cc1cc(N2C(=O)C3COCNN3C2=O)c(F)cc1Cl (stereo not drawn) [Ex. 1d, 8-(4′-chloro-2′-fluoro-5′-methoxyiminomethylphenyl)-4-oxa-7,9-dioxo-1,2,8-triaza[4.3.0.]nonane]
herbicidal activity, evaluation on a scale from 0 to 100 (Polygonum persicaria; 0.0156 kg of a.s./ha): 98 | herbicidal activity, evaluation on a scale from 0 to 100 (Polygonum persicaria; 0.0313 kg of a.s./ha): 98 | herbicidal activity, evaluation on a scale from 0 to 100 (Solanum nigrum; 0.0156 kg of a.s./ha): 100 | herbicidal activity, evaluation on a scale from 0 to 100 (Solanum nigrum; 0.0313 kg of a.s./ha): 100 | herbicidal activity, evaluation on a scale from 0 to 100 (Abutilon theoprasti; 0.0156 kg of a.s./ha): 100 | herbicidal activity, evaluation on a scale from 0 to 100 (Abutilon theoprasti; 0.0313 kg of a.s./ha): 100 | herbicidal activity, evaluation on a scale from 0 to 100 (Veronica spp.; 0.0156 kg of a.s./ha): 100 | herbicidal activity, evaluation on a scale from 0 to 100 (Veronica spp.; 0.0313 kg of a.s./ha): 100 | herbicidal activity, evaluation on a scale from 0 to 100 (Galium aparine; 0.0156 kg of a.s./ha): 98 | herbicidal activity, evaluation on a scale from 0 to 100 (Galium aparine; 0.0313 kg of a.s./ha): 98 | herbicidal activity, evaluation on a scale from 0 to 100 (Chenopodium album; 0.0156 kg of a.s./ha): 98 | herbicidal activity, evaluation on a scale from 0 to 100 (Chenopodium album; 0.0313 kg of a.s./ha): 98
